Data set [1] relates to Trypanosoma brucei brucei. The data set can be described thus: Antiparasitic activity against Trypanosoma brucei brucei BF427 assessed as growth inhibition after 48 hrs by Alamar blue assay. It counts as functional. The conditions noted are these: BF427, 48 h. In general terms: Alamar Blue is a resazurin reagent that responds to reducing activity.
Data set [2] can be described thus: Cytotoxicity against human CRL8155 cells assessed as growth inhibition after 48 hrs by Alamar blue assay. The class given is cell-based. The following applies: crl8155, 48 h.
Another data set concerns HepG2. Kind of data set: Cytotoxicity against human HepG2 cells assessed as growth inhibition after 48 hrs by Alamar blue assay. The conditions noted are these: hepg2, 48 h. The class given is cell-based.
In data set [3] the test system is Trypanosoma brucei rhodesiense. The data set can be described thus: Antiparasitic activity against Trypanosoma brucei rhodesiense STIB900 assessed as growth inhibition after 48 hrs by Alamar blue assay. The conditions noted are these: STIB900, 48 h. It counts as functional.
Another data set concerns the target Cytochrome P450 3A4 (Homo sapiens, UniProt P08684). Kind of data set: Inhibition of human CYP3A4. It counts as ADME.
The test system of data set [4] is Liver. Kind of data set: Half life in human liver microsomes at 1.5 uM by LC-MS analysis. The class given is ADME, microsome. (Liver microsomes are a subcellular fraction often used to study metabolism.)
Data set [5] is described as follows: Ratio of drug level in brain to plasma in mouse at 5 mg/kg, ip after 1 hr by LC-MS analysis. It counts as ADME, organism-based.
The nature of data set [6]: Cmax in mouse at 50 mg/kg, po by LC-MS analysis. The class given is ADME, organism-based. Set-up: dose 50 mg/kg, route oral. The conditions noted are these: in vivo.
The nature of data set [7]: AUC (0 to 8 hrs) in mouse at 50 mg/kg, po by LC-MS analysis. Set-up: dose 50 mg/kg, time < 8 hr, route oral. The conditions noted are these: in vivo. It counts as ADME, organism-based.
The subject of data set [8] is Trypanosoma brucei rhodesiense. The data set can be described thus: Antiparasitic activity against Trypanosoma brucei rhodesiense STIB900 infected in Swiss-Webster mouse assessed as cure rate at 50 mg/kg, bid administered via oral gavage from day 2 to 5 post infection measured after 60 days by microscopic method relative to control. The class given is functional.
Data set [9] has as its system Trypanosoma brucei rhodesiense. The data set can be described thus: Antiparasitic activity against Trypanosoma brucei rhodesiense STIB900 infected in Swiss-Webster mouse assessed as parasitemia rebound time at 50 mg/kg, bid administered via oral gavage from day 2 to 5 post infection by microscopic method. The class given is functional.
Data set [10] concerns Trypanosoma brucei brucei. Kind of data set: Antiparasitic activity against Trypanosoma brucei brucei TREU667 infected in mouse assessed as decrease in parasitemia at 50 mg/kg, bid administered via oral gavage on day 21 to 34 post infection measured on day 34 by microscopic method. The class given is functional, organism-based.
Data set [11] deals with Trypanosoma brucei brucei. The data set can be described thus: Antiparasitic activity against Trypanosoma brucei brucei TREU667 infected in mouse assessed as decrease in parasitemia at 50 mg/kg, bid administered via oral gavage on day 21 to 34 post infection measured on day 35 by microscopic method. The class given is functional, organism-based.
For data set [12], the system named is Trypanosoma brucei brucei. Kind of data set: Antiparasitic activity against Trypanosoma brucei brucei TREU667 infected in mouse assessed as decrease in parasitemia at 50 mg/kg, bid administered via oral gavage on day 21 to 34 post infection measured on day 36 by microscopic method. The class given is functional, organism-based.
Data set [13] deals with Trypanosoma brucei brucei. Kind of data set: Antiparasitic activity against Trypanosoma brucei brucei TREU667 infected in mouse assessed as decrease in parasitemia at 50 mg/kg, bid administered via oral gavage on day 21 to 34 post infection measured on day 40 by microscopic method. The class given is functional, organism-based.
For data set [14], the system named is Trypanosoma brucei brucei. Kind of data set: Antiparasitic activity against Trypanosoma brucei brucei BF427 assessed as growth inhibition at 128 times EC50 pretreated for 24 hrs followed by compound washout measured after 10 days by light microscopic method. The class given is functional.
The subject of data set [15] is Trypanosoma brucei brucei. The data set can be described thus: Antiparasitic activity against Trypanosoma brucei brucei BF427 assessed as growth inhibition at 128 times EC50 pretreated for 48 hrs followed by compound washout measured after 10 days by light microscopic method. It counts as functional.
Data set [16] relates to Trypanosoma brucei brucei. Kind of data set: Antiparasitic activity against Trypanosoma brucei brucei BF427 assessed as growth inhibition at 64 times EC50 pretreated for 72 hrs followed by compound washout measured after 10 days by light microscopic method. It counts as functional.
Data set [17] deals with Trypanosoma brucei brucei. The data set can be described thus: Antiparasitic activity against Trypanosoma brucei brucei BF427 assessed as growth inhibition at 64 times EC50 pretreated for 96 hrs followed by compound washout measured after 10 days by light microscopic method. The class given is functional.
The test system of data set [18] is Liver. Kind of data set: Half life in mouse liver microsomes at 1.5 uM by LC-MS analysis. It counts as ADME, microsome.
Data set [19] concerns Trypanosoma brucei brucei. Kind of data set: Antiparasitic activity against Trypanosoma brucei brucei TREU667 infected in mouse assessed as decrease in parasitemia at 50 mg/kg, bid administered via oral gavage on day 21 to 34 post infection measured on day 41 to 42 by microscopic method. It counts as functional, organism-based.
Data set [20] deals with Trypanosoma brucei brucei. Kind of data set: Antiparasitic activity against Trypanosoma brucei brucei BF427 assessed as growth inhibition at 16 times EC50 pretreated for 24 hrs followed by compound washout measured after 10 days by light microscopic method. It counts as functional.
The test system of data set [21] is Trypanosoma brucei brucei. Kind of data set: Antiparasitic activity against Trypanosoma brucei brucei BF427 assessed as growth inhibition at 8 times EC50 pretreated for 48 hrs followed by compound washout measured after 10 days by light microscopic method. The class given is functional.
Data set [22] deals with Trypanosoma brucei brucei. Kind of data set: Antiparasitic activity against Trypanosoma brucei brucei BF427 assessed as growth inhibition at 8 times EC50 pretreated for 72 hrs followed by compound washout measured after 10 days by light microscopic method. It counts as functional.
Data set [23] concerns Trypanosoma brucei brucei. Kind of data set: Antiparasitic activity against Trypanosoma brucei brucei BF427 assessed as growth inhibition at 4 times EC50 pretreated for 96 hrs followed by compound washout measured after 10 days by light microscopic method. The class given is functional.
In data set [24] the test system is Trypanosoma brucei brucei. Kind of data set: Antiparasitic activity against Trypanosoma brucei brucei BF427 assessed as growth inhibition at 32 times EC50 pretreated for 48 hrs followed by compound washout measured after 10 days by light microscopic method. The class given is functional.
The test system of data set [25] is Trypanosoma brucei brucei. Kind of data set: Antiparasitic activity against Trypanosoma brucei brucei BF427 assessed as growth inhibition at 16 times EC50 pretreated for 72 hrs followed by compound washout measured after 10 days by light microscopic method. It counts as functional.
In data set [26] the test system is Trypanosoma brucei brucei. The data set can be described thus: Antiparasitic activity against Trypanosoma brucei brucei BF427 assessed as growth inhibition at 32 times EC50 pretreated for 96 hrs followed by compound washout measured after 10 days by light microscopic method. The class given is functional.

pEC50, pIC50: −log10 of the molar value. Active and inactive are the calls of the source. The rule behind the calls is not given here.

Chain of Cytochrome P450 3A4 (P08684 whole entry): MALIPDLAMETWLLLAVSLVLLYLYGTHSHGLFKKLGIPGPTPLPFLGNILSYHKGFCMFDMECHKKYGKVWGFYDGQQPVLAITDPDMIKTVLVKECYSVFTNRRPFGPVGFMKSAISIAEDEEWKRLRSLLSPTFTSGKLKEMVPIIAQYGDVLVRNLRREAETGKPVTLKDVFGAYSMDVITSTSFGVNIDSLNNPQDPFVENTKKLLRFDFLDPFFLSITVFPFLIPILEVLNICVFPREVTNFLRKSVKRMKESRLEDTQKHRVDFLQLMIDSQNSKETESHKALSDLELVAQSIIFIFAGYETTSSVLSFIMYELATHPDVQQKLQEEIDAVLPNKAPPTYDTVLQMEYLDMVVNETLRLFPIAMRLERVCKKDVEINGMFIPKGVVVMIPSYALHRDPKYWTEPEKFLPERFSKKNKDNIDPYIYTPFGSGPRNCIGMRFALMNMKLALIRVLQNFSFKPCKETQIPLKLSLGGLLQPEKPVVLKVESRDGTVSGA

Turning to `CC(C)c1ccc(COc2ccc(N(CCN)C(=O)c3cccnc3C(F)(F)F)cc2)cc1.Cl`, the figures for the pEC50 in [1] and in [3] were 9.00 and 8.70, respectively. Besides, the CC50 was determined as 2030 nM in [2] and 3830 nM with HepG2. Further, the negative logarithm of the IC50 (pIC50) at Cytochrome P450 3A4 is 6.84. Besides, in the data set with Liver [4], the t1/2 is above 1 h. In data set [5], the BPR worked out at 0.23. Moreover, the peak level in [6] (Cmax) was 1000 nM. In addition, the AUC(0-t) at 8 h in [7] was 5.58 µM·h. The Activity in data set [8] is listed as 67 - 80%. For the same compound, the Time in [9] came out at 31 days. The result in data set [10], in data set [11] and in data set [12] was Active. Further, in data set [13], the outcome was inactive.

For the compound `Cl.NCCN(C(=O)c1ccccc1C(F)(F)F)c1ccc(OCc2ccc(Cl)cc2)cc1`, the pEC50 in [1] is 8.15. The CC50 in data set [2] came out at 3080 nM; in the data set on HepG2, 5720 nM. This compound also gave a t1/2 in the data set with Liver [4] above 1 h. In data set [5], the BPR is 0.88. This compound also had a peak concentration (Cmax) in data set [6] of 1670 nM. Also, the AUC(0-t) at 8 h in data set [7] was 10.3 µM·h. The Activity in data set [8] was determined as 33%. For the same compound, the “growth inhibition (GI)” value in data set [14], in data set [15], in data set [16] and in data set [17] was “Active” in each case.

`CC(C)c1ccc(COc2ccc(N(CCN)C(=O)c3cccnc3Cl)cc2)cc1.Cl`: in data set [1], the negative-log EC50 (pEC50) is 8.70. The CC50 came to 4030 nM in data set [2] and 10500 nM with HepG2. Moreover, the t1/2 with Liver [4] and with Liver [18] was above 1 h in each case. For the same compound, the BPR in data set [5] was found to be 0.16. The compound also displayed a Cmax in data set [6] of 1890 nM. In data set [7], the AUC(0-t) at 8 h was 12.3 µM·h. In addition, the Activity in data set [8] is recorded as 67 - 80%. Moreover, the result in data set [10], in data set [11] and in data set [12] was Active. Moreover, the outcome in [19] was inactive. Besides, the “growth inhibition (GI)” value in [20], in data set [21], in data set [22] and in data set [23] was “Active” each time.

For the compound `CC(C)c1ccc(COc2ccc(N(CCN)C(=O)c3ccc(Cl)cc3Cl)cc2)cc1.Cl`, the CC50 in data set [2] worked out at 3100 nM; with HepG2, 3190 nM. On Cytochrome P450 3A4, this compound gave a pIC50 of 7.82. This compound yielded a t1/2 in the data set on Liver [4] above 1 h. In data set [5], the BPR was 0.32. Moreover, the highest level in [6] (Cmax) was 1490 nM. The compound also gave an AUC(0-t) at 8 h in data set [7] of 21 µM·h. For the same compound, the Activity in [8] is given as 67 - 80%. Further, the “growth inhibition (GI)” value in data set [20], in data set [24], in data set [25] and in data set [26] was “Active” throughout.

What is called pEC50 is the EC50 on a negative log10 scale, so that one unit is a factor of ten. In general, CC50 refers to the concentration that lowers cell viability or growth by half. In general, pIC50 refers to −log10 of the IC50, conventionally taken in molar units. Higher therefore signals a small IC50. The term Cmax denotes the peak of the concentration-time curve. For orientation: AUC(0-t) means exposure summed from dosing to a finite time, without extrapolation to infinity. A high value points to more exposure.

The record behind these values is ChEMBL document CHEMBL4000252, “Discovery of N-(2-aminoethyl)-N-benzyloxyphenyl benzamides: New potent Trypanosoma brucei inhibitors” (Bioorg Med Chem, 2017).
